# Assay results: US11535856B2, “Stilbenoid prenyltransferases from plants” (Arkansas State University—Jonesboro, priority 2016, dated 2022)
# B1: AhR3′DT-3: stilbenoid prenyltransferase, GenBank KY565247 (protein, listed as Arachis hypogaea)
# chain: MPFGLSASFLKSRSLHHHGWKFLKEREIHKQPLRNTRRALWNNNGKLSKEYCIKMQHNYWKNHCTNLKGGSMMSDDKFEKKYLVNATSKNSHDEPKKSQPILEFIKDGMDTFRQFSRLYAFFSFISSGLSSSLLAVDNLSNISPKMFLIGFLQFLIPNCIMFQYIVGVNQLADIEIDKINKPYLPLASGKYSLRNAIIIVASSLIMGFGSAWVLGSRPMFWCLVISTMLMTAYSVNLPLLRWKRSTILATLSLASSMTIGQHIAPFLHMKTVLKKALNYPRSLVFTVVVVSLFYTVISLAKDIPDIEGDKAAGHKTLAIHLGPRRVFWFCISLLQMTYGIAIIMGALSPILWSKIFTVVTHFIMSIILWYRANSVDLSNNDSLQSFYMAIFVFLSVENFLVLFVR
# B2: AhR3′DT-2: stilbenoid prenyltransferase, GenBank KY565246 (protein, listed as Arachis hypogaea)
# chain: MPFGLSASFLKSRSFHHHGTRRALWNNNGKLSKEYCIKMQHNYWKNHCTNLKGGSMMSDDKFEKKYLVNATSKNSHDEPKKSQPILEFIKDGMDTFRQFSRLYAFFSFISSGLSSSLLAVDNLSNISPKMFLIGFLQFLIPNCIMFQYIVGVNQLADIEIDKINKPYLPLASGKYSLRNAIIIVASSLLMGFGSAWVLGSRPMFWCLVISTMLMTAYSVNLPLLRWKRSTILATLSLASSMTIGQHIAPFLHMKTVLKKALNYPRSLVFTVVVVSLFYTVISLAKDIPDIEGDKAAGHKTLAIHLGPRRVFWFCISLLQMTYGIAIIMGALSPILWSKIFTVVTHFIMSIILWYRANSVDLSNNDSLQSFYMAIFVFLSVENFLVLFVR
# B3: AhR3′DT-4: stilbenoid prenyltransferase, GenBank KY565248 (protein, listed as Arachis hypogaea)
# chain: MASTSRLLLHASLPPPTTSISKTNSGSHAVIRSIWHNNGKYPKEKTCIETPLLLQHNQKHHYTCDQIKRKHFVKATHAQSKNEPEPQADSAKPIWNSIKDVMHTIQKFSVFYALIGLLSGILSSSLLAVEKLSDLSPTFFISMLQFMAAYSSMQLYTTGVNQLADIEIDKINKPYRPLASSKISFGGGLAIVAASLFMSFGLALMIGSKPLLWGLILIFILMTAYSVNLPFLRWKKSTILTLLSGVPTILTAYNLAPYLHMKTFVLKKPFIFTRSLAFTTVVMTFFYVVISLFKDIPDIEGDKKEGLQTLSIRLGPKRVFWLCISLLEMTYGIAIIMGLTSPFLWSKIFTVMAHAINAWILWFRANSVDLKSKEDFQSFYMFIFKLLYLENVLVLFVR
# Tests used:
# AhR3′DT-1 = AhR3′DT-1 (Arachis hypogaea, UniProt A0A2H4GDD0); assay: AhR3′DT-1 activity in microsomal fraction of N. benthamiana leaves; details: for activity as prenyl donor: 300 μM donor, 100 μM resveratrol as prenyl acceptor; for prenylation as prenyl acceptor: DMAPP as prenyl donor; for AhR3′DT-1 activity relative to Mg^2+: 10 mM divalent cation or EDTA
# AhR3′DT-1, sequence (A0A2H4GDD0 entry or part of it): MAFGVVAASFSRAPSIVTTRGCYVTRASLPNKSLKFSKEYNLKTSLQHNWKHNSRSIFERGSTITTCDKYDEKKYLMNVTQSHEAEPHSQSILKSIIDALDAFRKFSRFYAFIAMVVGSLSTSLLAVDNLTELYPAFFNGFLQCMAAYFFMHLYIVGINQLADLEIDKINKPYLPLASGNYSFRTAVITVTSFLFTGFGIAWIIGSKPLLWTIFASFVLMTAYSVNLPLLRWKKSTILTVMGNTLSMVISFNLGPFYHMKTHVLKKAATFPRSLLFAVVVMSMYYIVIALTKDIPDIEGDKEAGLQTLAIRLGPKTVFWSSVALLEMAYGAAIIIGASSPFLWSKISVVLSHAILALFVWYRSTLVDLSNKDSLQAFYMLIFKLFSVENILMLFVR
# AhR4DT-1 = AhR4DT-1 (Arachis hypogaea, UniProt A0A2H4GDC8); assay: AhR4DT-1 activity in microsomal fraction of N. benthamiana leaves; details: for activity as prenyl donor: 300 μM donor, 100 μM resveratrol as prenyl acceptor; for prenylation as prenyl acceptor: DMAPP as prenyl donor; for AhR4DT-1 activity relative to Mg^2+: 10 mM divalent cation or EDTA
# AhR4DT-1, sequence (A0A2H4GDC8 entry or part of it): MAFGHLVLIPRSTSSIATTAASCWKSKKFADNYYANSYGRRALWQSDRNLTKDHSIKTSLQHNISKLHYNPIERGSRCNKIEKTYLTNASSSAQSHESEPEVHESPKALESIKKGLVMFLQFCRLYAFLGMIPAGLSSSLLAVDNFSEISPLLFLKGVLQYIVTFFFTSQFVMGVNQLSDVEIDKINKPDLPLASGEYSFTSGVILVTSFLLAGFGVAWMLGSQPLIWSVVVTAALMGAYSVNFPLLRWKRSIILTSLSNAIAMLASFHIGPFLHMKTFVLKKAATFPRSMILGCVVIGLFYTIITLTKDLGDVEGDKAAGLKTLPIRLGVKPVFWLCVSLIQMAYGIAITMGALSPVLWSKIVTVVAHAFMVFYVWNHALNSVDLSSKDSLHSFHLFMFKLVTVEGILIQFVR
# [1] = tested on: resveratrol prenyltransferase AhR4DT; assay: Prenyltransferase assay with microsomal fraction of elicited peanut hairy roots; format: biochemical, Arachis hypogaea; details: for prenylation as prenyl acceptor: 100 μM acceptor, 300 μM DMAPP; for resveratrol prenyltransferase activity relative to Mg^2+: 10 mM divalent cation
# [2] = tested on: peanut hairy root cultures; assay: Inhibitor feeding experiment in elicited peanut hairy root cultures; format: cell-based, Arachis hypogaea
# resveratrol prenylation = assay: Screening for stilbenoid prenylation activity, crude extract of infiltrated N. benthamiana leaves; format: biochemical, Arachis hypogaea; details: resveratrol and DMAPP as substrates
# Method: The engineered A. tumefaciens was grown in 5 mL of YEP medium, containing 50 mg/L of kanamycin (Sigma-Aldrich) and 30 mg/L of streptomycin (Sigma-Aldrich) for antibiotic selection, at 28° C. on an orbital shaker at 200 rpm. After cultivation for 2 days, 5 mL of bacterial suspension was inoculated into 50 mL of fresh YEP medium containing the antibiotics and allowed to grow for one additional day under the same conditions. Bacteria were pelleted by centrifugation, resuspended in 500 mL of induction medium containing 10 mM MgCl2 with 1 mM acetosyringone and incubated for 4 h at 28° C. under 200 rpm orbital shaking until their OD600 reached to a range from 0.5 to 0.6. Before the infiltration, 0.005% of Tween-20, 0.005% of Triton 100 and 0.005% of Silwet L-77 were added to bacterial cultures to enhance the efficiency of transformation in N. benthamiana leaves. Agrobacterium-mediated vacuum infiltration was performed on 4-week-old N. benthamiana following the methodology described previously (Medrano et al., 2009).
# After 48 hours of post-infiltration, the “middle tier” of N. benthamiana leaves were harvested for prenylation activity screening. Five grams of leaf tissue (fresh weight) were grounded and homogenized using a mortar with pestle in 10 mL of extraction buffer containing 100 mM Tris-HCl (pH 7.6) and 10 mM dithiothreitol (DTT). […] The total protein concentration was determined by coomassie protein assay (Thermo Scientific) using bovine serum albumin as standard.
# The reaction of crude cell-free extract of N. benthamiana leaves infiltrated with A. tumefaciens harboring the empty pBIB-Kan vector was used as control.
# [3] = 100 clomazone with elicitors, 72 h
# [4] = 10 μM mevastatin, 72-h treatment
molecule,measurement,setting,value
"CC(C)=CCC/C(C)=C/CC/C(C)=C/CC/C(C)=C/COP(=O)(O)OP(=O)(O)O [GGPP, geranylgeranyl pyrophosphate]",activity as prenyl donor,AhR3′DT-1,Neither AhR4DT-1 nor AhR3′DT-1 showed any detectable activity
same,activity as prenyl donor,AhR4DT-1,Neither AhR4DT-1 nor AhR3′DT-1 showed any detectable activity
"Oc1cc(O)cc(/C=C/c2ccc(O)c(O)c2)c1 [piceatannol, 3,5,3′,4′-tetrahydroxy-trans-stilbene]",prenylation as prenyl acceptor,[1],catalyzed the synthesis of arachidin-5 as the predominant prenylated product
same,prenylation as prenyl acceptor,AhR3′DT-1,prenylated products of piceatannol and prenylated oxyresveratrol were identified
same,Vmax for AhR4DT-1 relative to AhR3′DT-1,AhR4DT-1,6.9 fold
same,prenylation as prenyl acceptor,AhR4DT-1,can selectively catalyze
Oc1cc(O)cc(/C=C/c2ccc(O)cc2O)c1 [oxyresveratrol],prenylation as prenyl acceptor,[1],an isoprene unit was also transferred to oxyresveratrol
same,prenylation as prenyl acceptor,AhR3′DT-1,prenylated products of piceatannol and prenylated oxyresveratrol were identified
same,prenylation as prenyl acceptor,AhR4DT-1,can selectively catalyze
CC1(C)CON(Cc2ccccc2Cl)C1=O [clomazone],yields of prenylated stilbenoids compared to non-inhibitor group,[2]; 10 μM and 100 μM clomazone,significantly lower yields of prenylated stilbenoids
same,yields of resveratrol compared to non-inhibitor group,[2]; 10 μM and 100 μM clomazone,significantly higher yields of resveratrol
same,piceatannol produced,[2]; 100 μM clomazone,9.02 µM
same,resveratrol produced,[2]; 100 μM clomazone,845.7 µM
same,accumulation of arachidin-5 and arachidin-1,"[2]; 100 μM clomazone, 48-hour",almost completely inhibited
same,piceatannol concentration,"[2]; 100 μM clomazone, 72 h",increased only slightly
same,yield of resveratrol,[2]; [3],830.73 ± 25.83 µM
same,yield of resveratrol relative to non-inhibitor group,[2]; [3],6.3 fold
same,effects on accumulation of resveratrol and inhibition of prenylated stilbenoids accumulation,[2]; clomazone 1 μM to 100 μM with elicitors,increased with the concentration of clomazone
same,"micromolar increase of resveratrol relative to overall decrease of arachidin-5, -1, -2 and -3",[2]; clomazone with elicitors,about 1.54 fold
same,levels of all prenylated stilbenoids,"[2]; clomazone, 24-h interval between 48- and 72-h time points",no significant increases
same,production of stilbenoids without elicitors,"[2]; different concentrations of clomazone, no elicitors",none of these stilbenoids was detected
[Ca+2] [Ca^2+],resveratrol prenyltransferase activity relative to Mg^2+,[1],0.9%
[Mn+2] [Mn^2+],resveratrol prenyltransferase activity relative to Mg^2+,[1],71.8%
same,efficiency relative to Mg^2+,AhR3′DT-1,2.1 fold
same,AhR3′DT-1 activity relative to Mg^2+,AhR3′DT-1,210.3%
same,AhR4DT-1 activity relative to Mg^2+,AhR4DT-1,83.9%
O=C(O)CN(CCN(CC(=O)O)CC(=O)O)CC(=O)O [EDTA],AhR3′DT-1 activity relative to Mg^2+,AhR3′DT-1,no activity was detected
same,AhR4DT-1 activity relative to Mg^2+,AhR4DT-1,no activity was detected
[Mg+2] [Mg^2+],resveratrol prenyltransferase activity relative to Mg^2+,[1],100%
same,AhR3′DT-1 activity relative to Mg^2+,AhR3′DT-1,100%
same,AhR4DT-1 activity relative to Mg^2+,AhR4DT-1,100%
"CC(C)=CCOP(=O)(O)OP(=O)(O)O [DMAPP, dimethylallyl pyrophosphate]",Km,"[1]; microsomal fraction of peanut hairy roots, 28° C., 60 min, read-out: apparent km",91.9 ± 7.03 µM
same,Vmax for AhR4DT-1 relative to AhR3′DT-1,AhR4DT-1,5.8 fold
O=C1C[C@@H](c2ccc(O)cc2)Oc2cc(O)cc(O)c21 [naringenin],prenylation as prenyl acceptor,AhR3′DT-1,"neither prenylated flavanone, prenylated flavone, nor prenylated isoflavone was detected"
same,prenylation as prenyl acceptor,AhR4DT-1,"neither prenylated flavanone, prenylated flavone, nor prenylated isoflavone was detected"
O=c1cc(-c2ccc(O)cc2)oc2cc(O)cc(O)c12 [apigenin],prenylation as prenyl acceptor,AhR3′DT-1,"neither prenylated flavanone, prenylated flavone, nor prenylated isoflavone was detected"
same,prenylation as prenyl acceptor,AhR4DT-1,"neither prenylated flavanone, prenylated flavone, nor prenylated isoflavone was detected"
"CC(C)=CCC/C(C)=C/COP(=O)(O)OP(=O)(O)O [GPP, geranyl pyrophosphate]",activity as prenyl donor,AhR3′DT-1,Neither AhR4DT-1 nor AhR3′DT-1 showed any detectable activity
same,activity as prenyl donor,AhR4DT-1,Neither AhR4DT-1 nor AhR3′DT-1 showed any detectable activity
CC[C@H](C)C(=O)O[C@H]1CCC=C2C=C[C@H](C)[C@H](CC[C@@H]3C[C@@H](O)CC(=O)O3)[C@H]21 [mevastatin],"yields of resveratrol, piceatannol and prenylated stilbenoids",[2]; 10 μM mevastatin with elicitors,no significant effect
same,increase in yield of arachidin-1,[2]; [4],41%
same,increase in yield of arachidin-5,[2]; [4],27%
same,"accumulation of arachidin-5, arachidin-1, arachidin-2 and arachidin-3",[2]; 24-h interval between 48 and 72-h treatments,did not inhibit the accumulation
same,levels of prenylated stilbenoids,"[2]; mevastatin at 1, 10, or 100 μM with 100 μM MeJA and 9 g/L CD, preliminary experiments",did not affect the levels of prenylated stilbenoids
Oc1cc(O)cc(/C=C/c2ccccc2)c1 [pinosylvin],prenylation as prenyl acceptor,[1],catalyzed pinosylvin into chiricanine A
same,prenylation as prenyl acceptor,AhR3′DT-1,no prenylated pinosylvin was produced
same,prenylation as prenyl acceptor,AhR4DT-1,can selectively catalyze
"CC(C)=CCC/C(C)=C/CC/C(C)=C/COP(=O)(O)OP(=O)(O)O [FPP, farnesyl pyrophosphate]",activity as prenyl donor,AhR3′DT-1,Neither AhR4DT-1 nor AhR3′DT-1 showed any detectable activity
same,activity as prenyl donor,AhR4DT-1,Neither AhR4DT-1 nor AhR3′DT-1 showed any detectable activity
[Fe+2] [Fe^2+],resveratrol prenyltransferase activity relative to Mg^2+,[1],14.6%
same,AhR3′DT-1 activity relative to Mg^2+,AhR3′DT-1,34.8%
same,AhR4DT-1 activity relative to Mg^2+,AhR4DT-1,6.4%
O=c1c(-c2ccc(O)cc2)coc2cc(O)cc(O)c12 [genistein],prenylation as prenyl acceptor,AhR3′DT-1,"neither prenylated flavanone, prenylated flavone, nor prenylated isoflavone was detected"
same,prenylation as prenyl acceptor,AhR4DT-1,"neither prenylated flavanone, prenylated flavone, nor prenylated isoflavone was detected"
B1,activity level relative to AhR3′DT-1,resveratrol prenylation,17%
B2,activity level relative to AhR3′DT-1,resveratrol prenylation,18%
B3,activity level relative to AhR3′DT-1,resveratrol prenylation,5%
